Data as given in US20170355705A1 (GlaxoSmithKline Intellectual Property (No.2) Limited, priority 2014, published 2017).

Target: T1, SIRT1 (Homo sapiens, UniProt Q96EB6)
T1 sequence (Q96EB6 1-747): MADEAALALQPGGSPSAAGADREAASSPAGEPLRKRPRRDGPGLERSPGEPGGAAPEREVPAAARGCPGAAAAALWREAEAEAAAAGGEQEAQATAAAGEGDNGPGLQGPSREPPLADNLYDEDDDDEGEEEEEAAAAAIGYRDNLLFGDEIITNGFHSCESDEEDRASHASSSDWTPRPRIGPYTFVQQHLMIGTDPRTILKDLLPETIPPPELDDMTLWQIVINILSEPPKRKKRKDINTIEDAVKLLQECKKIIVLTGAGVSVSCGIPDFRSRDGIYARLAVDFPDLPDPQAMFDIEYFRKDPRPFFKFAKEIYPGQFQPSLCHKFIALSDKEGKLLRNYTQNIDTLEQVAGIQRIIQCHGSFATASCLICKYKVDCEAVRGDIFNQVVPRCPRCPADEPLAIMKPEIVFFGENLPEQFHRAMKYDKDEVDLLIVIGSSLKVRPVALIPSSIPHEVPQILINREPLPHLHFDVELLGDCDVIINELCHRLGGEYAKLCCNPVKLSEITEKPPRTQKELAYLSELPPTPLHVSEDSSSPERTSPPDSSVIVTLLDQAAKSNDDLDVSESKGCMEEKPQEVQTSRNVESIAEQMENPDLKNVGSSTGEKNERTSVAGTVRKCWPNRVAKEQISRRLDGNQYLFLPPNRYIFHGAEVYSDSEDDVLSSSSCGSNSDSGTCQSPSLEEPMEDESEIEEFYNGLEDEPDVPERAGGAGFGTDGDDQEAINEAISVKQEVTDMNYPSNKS
Test: Trp mass spectrometry assay of SIRT1 activity (EC1.5, percent maximum activation)
Type: biochemical
Settings: Trp mass spectrometry assay; for TRP Activity (EC1.5): EC1.5 = concentration giving 150% activation of SIRT1; for TRP MAX RESP (percent maximum fold activation): percent maximum activation of SIRT1
How it was run: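 Activation values derive from mass-spectrometric measurement of NAD-dependent deacetylation product after a 25 min reaction of bacterially expressed His-tagged SIRT1 with a fluorophore-labelled Trp peptide.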

COc1ncc(C(F)(F)F)cc1-c1nc2c(cc1Cl)N1CC[C@@H](C1)N2C(=O)Nc1ccnc(OC[C@@H](O)CO)c1 [Example 103, (4S)-8-chloro-N-(2-((S)-2,3-dihydroxypropoxy)pyridin-4-yl)-7-(2-methoxy-5-(trifluoromethyl)pyridin-3-yl)-3,4-dihydro-1,4-methanopyrido[2,3-b][1,4]diazepine-5(2H)-carboxamide]
TRP Activity (EC1.5): B (EC1.5 1-25 μM)
TRP MAX RESP (percent maximum fold activation): A (Fold activation ≧150%)

N#Cc1cc2c(nc1-c1cccc(C(F)(F)F)c1)N(C(=O)Nc1ccnc(OC[C@@H](O)CO)c1)[C@H]1CCN2C1 [Example 104, (4S)-8-cyano-N-(2-((S)-2,3-dihydroxypropoxy)pyridin-4-yl)-7-(3-(trifluoromethyl)phenyl)-3,4-dihydro-1,4-methanopyrido[2,3-b][1,4]diazepine-5(2H)-carboxamide]
TRP Activity (EC1.5): A (EC1.5<1 μM)
TRP MAX RESP (percent maximum fold activation): A (Fold activation ≧150%)

Cn1cc(-c2nc3c(cc2Cl)N2CC[C@@H](C2)N3C(=O)Nc2ccnc(OC[C@@H](O)CO)c2)cn1 [Example 105, (4S)-8-chloro-N-(2-((S)-2,3-dihydroxypropoxy)pyridin-4-yl)-7-(1-methyl-1H-pyrazol-4-yl)-3,4-dihydro-1,4-methanopyrido[2,3-b][1,4]diazepine-5(2H)-carboxamide]
TRP Activity (EC1.5): B (EC1.5 1-25 μM)
TRP MAX RESP (percent maximum fold activation): A (Fold activation ≧150%)

Cn1cc(-c2nc3c(cc2Cl)N2CC[C@@H](C2)N3C(=O)Nc2ccnc(OC[C@H](O)CO)c2)cn1 [Example 106, (4S)-8-chloro-N-(2-((R)-2,3-dihydroxypropoxy)pyridin-4-yl)-7-(1-methyl-1H-pyrazol-4-yl)-3,4-dihydro-1,4-methanopyrido[2,3-b][1,4]diazepine-5(2H)-carboxamide]
TRP Activity (EC1.5): B (EC1.5 1-25 μM)
TRP MAX RESP (percent maximum fold activation): A (Fold activation ≧150%)

O=C(Nc1ccnc(OC[C@@H](O)CO)c1)N1c2nc(-c3cccc(C(F)F)c3)c(Cl)cc2N2CC[C@H]1C2 [Example 107, (4S)-8-chloro-7-(3-(difluoromethyl)phenyl)-N-(2-((S)-2,3-dihydroxypropoxy)pyridin-4-yl)-3,4-dihydro-1,4-methanopyrido[2,3-b][1,4]diazepine-5(2H)-carboxamide]
TRP Activity (EC1.5): A (EC1.5<1 μM)
TRP MAX RESP (percent maximum fold activation): A (Fold activation ≧150%)

O=C(Nc1ccnc(OC[C@@H](O)CO)c1)N1c2nc(-c3ccnc(C(F)(F)F)c3)c(Cl)cc2N2CC[C@H]1C2 [Example 108, (4S)-8-chloro-N-(2-((S)-2,3-dihydroxypropoxy)pyridin-4-yl)-7-(2-(trifluoromethyl)pyridin-4-yl)-3,4-dihydro-1,4-methanopyrido[2,3-b][1,4]diazepine-5(2H)-carboxamide]
TRP Activity (EC1.5): B (EC1.5 1-25 μM)
TRP MAX RESP (percent maximum fold activation): A (Fold activation ≧150%)

O=C(Nc1ccnc(OC[C@@H](O)CO)c1)N1c2nc(-c3cncc(C(F)(F)F)c3)c(Cl)cc2N2CC[C@H]1C2 [Example 109, (4S)-8-chloro-N-(2-((S)-2,3-dihydroxypropoxy)pyridin-4-yl)-7-(5-(trifluoromethyl)pyridin-3-yl)-3,4-dihydro-1,4-methanopyrido[2,3-b][1,4]diazepine-5(2H)-carboxamide]
TRP Activity (EC1.5): B (EC1.5 1-25 μM)
TRP MAX RESP (percent maximum fold activation): A (Fold activation ≧150%)

Cc1cc(-c2nc3c(cc2Cl)N2CC[C@@H](C2)N3C(=O)Nc2cncc(OC[C@@H](O)CO)c2)ccn1 [Example 110, (4S)-8-chloro-N-(5-((S)-2,3-dihydroxypropoxy)pyridin-3-yl)-7-(2-methylpyridin-4-yl)-3,4-dihydro-1,4-methanopyrido[2,3-b][1,4]diazepine-5(2H)-carboxamide]
TRP Activity (EC1.5): B (EC1.5 1-25 μM)
TRP MAX RESP (percent maximum fold activation): A (Fold activation ≧150%)

O=C(Nc1ccccn1)N1c2nc(N3CCC[C@H]3C(F)(F)F)ccc2N2CC[C@H]1C2 [Example 120, (4S)-N-(pyridin-2-yl)-7-((S)-2-(trifluoromethyl)pyrrolidin-1-yl)-3,4-dihydro-1,4-methanopyrido[2,3-b][1,4]diazepine-5(2H)-carboxamide]
TRP Activity (EC1.5): B (EC1.5 1-25 μM)
TRP MAX RESP (percent maximum fold activation): A (Fold activation ≧150%)

Cc1cc(-c2ccc3c(n2)N(C(=O)Nc2ccc4c(c2)OCCO4)[C@H]2CCN3C2)ccn1 [Example 121, (4S)-N-(2,3-dihydrobenzo[b][1,4]dioxin-6-yl)-7-(2-methylpyridin-4-yl)-3,4-dihydro-1,4-methanopyrido[2,3-b][1,4]diazepine-5(2H)-carboxamide]
TRP Activity (EC1.5): B (EC1.5 1-25 μM)
TRP MAX RESP (percent maximum fold activation): A (Fold activation ≧150%)

CCc1cncc(NC(=O)N2c3nc(-c4ccnc(C)c4)ccc3N3CC[C@H]2C3)n1 [Example 122, (4S)-N-(6-ethylpyrazin-2-yl)-7-(2-methylpyridin-4-yl)-3,4-dihydro-1,4-methanopyrido[2,3-b][1,4]diazepine-5(2H)-carboxamide]
TRP Activity (EC1.5): A (EC1.5<1 μM)
TRP MAX RESP (percent maximum fold activation): A (Fold activation ≧150%)

O=C(Nc1cncc(OC[C@@H](O)CO)n1)N1c2nc(-c3cccc(C(F)(F)F)c3)ccc2N2CC[C@H]1C2 [Example 123, (4S)-N-(6-((S)-2,3-dihydroxypropoxy)pyrazin-2-yl)-7-(3-(trifluoromethyl)phenyl)-3,4-dihydro-1,4-methanopyrido[2,3-b][1,4]diazepine-5(2H)-carboxamide]
TRP Activity (EC1.5): A (EC1.5<1 μM)
TRP MAX RESP (percent maximum fold activation): A (Fold activation ≧150%)

C[C@@H]1CN(c2ccc3c(n2)N(C(=O)Nc2cnccn2)[C@H]2CCN3C2)CCO1 [Example 124, (4S)-7-((R)-2-methylmorpholino)-N-(pyrazin-2-yl)-3,4-dihydro-1,4-methanopyrido[2,3-b][1,4]diazepine-5(2H)-carboxamide]
TRP MAX RESP (percent maximum fold activation): A (Fold activation ≧150%)

C[C@H]1CN(c2ccc3c(n2)N(C(=O)Nc2cnccn2)[C@H]2CCN3C2)CCO1 [Example 125, (4S)-7-((S)-2-methylmorpholino)-N-(pyrazin-2-yl)-3,4-dihydro-1,4-methano pyrido[2,3-b][1,4]diazepine-5(2H)-carboxamide]
TRP MAX RESP (percent maximum fold activation): A (Fold activation ≧150%)

Cc1cc(-c2ccc3c(n2)N(C(=O)Nc2ccc4c(c2)OCCCO4)[C@H]2CCN3C2)ccn1 [Example 126, (4S)-N-(3,4-dihydro-2H-benzo[b][1,4]dioxepin-7-yl)-7-(2-methylpyridin-4-yl)-3,4-dihydro-1,4-methanopyrido[2,3-b][1,4]diazepine-5(2H)-carboxamide]
TRP Activity (EC1.5): A (EC1.5<1 μM)
TRP MAX RESP (percent maximum fold activation): A (Fold activation ≧150%)

O=C(Nc1ccnc(OC[C@H](O)CO)n1)N1c2nc(-c3cccc(C(F)(F)F)c3)ccc2N2CC[C@H]1C2 [Example 127, (4S)-N-(2-((R)-2,3-dihydroxypropoxy)pyrimidin-4-yl)-7-(3-(trifluoromethyl)phenyl)-3,4-dihydro-1,4-methanopyrido[2,3-b][1,4]diazepine-5(2H)-carboxamide]
TRP Activity (EC1.5): A (EC1.5<1 μM)
TRP MAX RESP (percent maximum fold activation): A (Fold activation ≧150%)

O=C(Nc1cncc(OC[C@H](O)CO)n1)N1c2nc(-c3cccc(C(F)(F)F)c3)ccc2N2CC[C@H]1C2 [Example 128, (4S)-N-(6-((R)-2,3-dihydroxypropoxy)pyrazin-2-yl)-7-(3-(trifluoromethyl)phenyl)-3,4-dihydro-1,4-methanopyrido[2,3-b][1,4]diazepine-5(2H)-carboxamide]
TRP Activity (EC1.5): A (EC1.5<1 μM)
TRP MAX RESP (percent maximum fold activation): A (Fold activation ≧150%)

Cc1cc(-c2ccc3c(n2)N(C(=O)Nc2cc4cn[nH]c4cn2)[C@H]2CCN3C2)ccn1 [Example 130, (4S)-7-(2-methylpyridin-4-yl)-N-(1H-pyrazolo[3,4-c]pyridin-5-yl)-3,4-dihydro-1,4-methanopyrido[2,3-b][1,4]diazepine-5(2H)-carboxamide]
TRP Activity (EC1.5): A (EC1.5<1 μM)
TRP MAX RESP (percent maximum fold activation): A (Fold activation ≧150%)

Cc1cc(-c2ccc3c(n2)N(C(=O)Nc2cccc4nccnc24)[C@H]2CCN3C2)ccn1 [Example 131, (4S)-7-(2-methylpyridin-4-yl)-N-(quinoxalin-5-yl)-3,4-dihydro-1,4-methanopyrido[2,3-b][1,4]diazepine-5(2H)-carboxamide]
TRP Activity (EC1.5): B (EC1.5 1-25 μM)
TRP MAX RESP (percent maximum fold activation): A (Fold activation ≧150%)
